# *1 amine or outer side, *2 acyl side, *3 side chain or, on linkers, in order; H or OH if unused. Where a SMILES comes first, the peptide text is derived from it. Bridges are numbered along the chain shown (N, C = ends). [ ]: non-standard residue; d: D form. X6 = O=C(NCCOCCOCCNC(=O)c1ccc2c(c1)C(=O)OC21c2ccc(O)cc2Oc2cc(O)ccc21)OCC1C2CCc3c([*:1])nnc([*:2])c3CCC21; X5 = O=C(O)CCOCCOCCOCCOCCNC(=O)OCC1C2CCc3c([*:1])nnc([*:2])c3CCC21; X2 = NCCOCCOCCNC(=O)OCC1C2CCc3c([*:1])nnc([*:2])c3CCC21; Maleimide(3,4-diyl) = O=C1NC(=O)C([*:2])=C1[*:1]; C6F4(1,4-diyl) = Fc1c(F)c([*:2])c(F)c(F)c1[*:1]; pXylylene = c1cc(C[*:2])ccc1C[*:1]; NMeR = CN[C@@H](CCCNC(=N)N)C(=O)O; Nle = CCCC[C@H](N)C(=O)O
# Columns and labels:
# Homo sapiens [1] = species on record: Homo sapiens; assay: Selectivity ratio of Ki for human MC3R to Ki for human MC1R
# Melanocortin receptor 3 [2] = biological target: T1, Melanocortin receptor 3 (Homo sapiens, UniProt P41968); assay: Agonist activity at human MC3R expressed in HEK2936E cells assessed as cAMP production in presence of IBMX by time resolved fluorescence assay; assay type: functional, cell-based
# Homo sapiens [3] = species on record: Homo sapiens; assay: Selectivity ratio of Ki for human MC4R to Ki for human MC1R
# Homo sapiens [4] = species on record: Homo sapiens; assay: Selectivity ratio of EC50 for human MC3R to EC50 for human MC1R
# [5] = biological target: T2, Melanocyte-stimulating hormone receptor (Homo sapiens, UniProt Q01726); assay: Agonist activity at human MC1R expressed in HEK2936E cells assessed as cAMP production in presence of IBMX by time resolved fluorescence assay; assay type: functional, cell-based
# Melanocortin receptor 4 [6] = biological target: T3, Melanocortin receptor 4 (Homo sapiens, UniProt P32245); assay: Displacement of [125I]-NDP-alpha-MSH from human MC4R expressed in HEK2936E cell membrane measured after 16 to 23 hrs by 1450 microbeta trilux scintillation proximity assay; assay type: cell membranes
# Homo sapiens [7] = species on record: Homo sapiens; assay: Selectivity ratio of EC50 for human MC4R to EC50 for human MC1R
# [8] = biological target: T2, Melanocyte-stimulating hormone receptor; assay: Displacement of [125I]-NDP-alpha-MSH from human MC1R expressed in HEK2936E cell membrane measured after 16 to 23 hrs by 1450 microbeta trilux scintillation proximity assay; assay type: cell membranes
# Melanocortin receptor 4 [9] = biological target: T3, Melanocortin receptor 4; assay: Agonist activity at human MC4R expressed in HEK2936E cells assessed as cAMP production in presence of IBMX by time resolved fluorescence assay; assay type: functional, cell-based
# Melanocortin receptor 3 [10] = biological target: T1, Melanocortin receptor 3; assay: Displacement of [125I]-NDP-alpha-MSH from human MC3R expressed in HEK2936E cell membrane measured after 16 to 23 hrs by 1450 microbeta trilux scintillation proximity assay; assay type: cell membranes
# T3 sequence (P32245 whole entry): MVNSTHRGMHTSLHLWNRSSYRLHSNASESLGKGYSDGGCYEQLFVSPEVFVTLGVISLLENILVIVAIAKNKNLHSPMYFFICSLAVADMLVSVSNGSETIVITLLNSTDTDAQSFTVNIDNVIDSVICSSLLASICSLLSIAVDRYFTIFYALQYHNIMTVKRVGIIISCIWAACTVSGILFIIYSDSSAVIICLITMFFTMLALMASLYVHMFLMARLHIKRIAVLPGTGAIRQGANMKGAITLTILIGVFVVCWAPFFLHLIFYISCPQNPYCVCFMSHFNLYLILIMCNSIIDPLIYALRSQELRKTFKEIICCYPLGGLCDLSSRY
# T2 sequence (Q01726 whole entry): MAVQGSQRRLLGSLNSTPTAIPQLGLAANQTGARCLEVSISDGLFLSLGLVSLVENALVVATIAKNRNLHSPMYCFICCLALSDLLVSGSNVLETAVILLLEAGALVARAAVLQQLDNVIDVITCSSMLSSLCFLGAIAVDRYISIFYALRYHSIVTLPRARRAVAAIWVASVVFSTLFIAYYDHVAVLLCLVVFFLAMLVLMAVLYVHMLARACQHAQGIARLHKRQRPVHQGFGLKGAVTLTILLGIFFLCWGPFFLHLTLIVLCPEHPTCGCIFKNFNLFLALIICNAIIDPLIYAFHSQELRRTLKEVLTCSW
# T1 sequence (P41968 whole entry): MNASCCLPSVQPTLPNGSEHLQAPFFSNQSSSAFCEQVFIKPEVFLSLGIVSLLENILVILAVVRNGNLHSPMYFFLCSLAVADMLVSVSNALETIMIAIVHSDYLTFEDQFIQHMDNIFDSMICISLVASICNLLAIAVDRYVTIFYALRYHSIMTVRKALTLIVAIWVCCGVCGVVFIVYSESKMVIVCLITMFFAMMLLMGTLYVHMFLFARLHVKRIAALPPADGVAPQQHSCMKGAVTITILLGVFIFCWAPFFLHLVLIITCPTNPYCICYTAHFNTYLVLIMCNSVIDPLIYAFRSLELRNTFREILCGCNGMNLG
Ratio Ki (Homo sapiens [1]),EC50 (Melanocortin receptor 3 [2]),Ratio Ki (Homo sapiens [3]),Ratio EC50 (Homo sapiens [4]),EC50 ([5]; read-out: pEC50 (converted)),Ki (Melanocortin receptor 4 [6]),Ratio EC50 (Homo sapiens [7]),Ki [8],EC50 (Melanocortin receptor 4 [9]),Ki (Melanocortin receptor 3 [10]),EC50 ([5]; read-out: EC50),SMILES
6,0.229 nM,25,1,0.339 nM,81.3 nM,35,3.31 nM,8.13 nM,20.9 nM,–,CCCC[C@@H]1NC(=O)[C@@H]2CSSC[C@H](NC(=O)[C@H](CCCNC(=N)N)NC(=O)[C@H](CC(=O)O)NC(=O)[C@H](Cc3c[nH]c4ccccc34)NC(=O)[C@H](CCCNC(=N)N)NC(=O)[C@H](Cc3ccccc3)NC(=O)[C@H](Cc3cnc[nH]3)NC(=O)CNC1=O)C(=O)N[C@@H](Cc1cnc[nH]1)C(=O)N[C@@H](Cc1ccccc1)C(=O)N[C@@H](CCCNC(=N)N)C(=O)N[C@@H](Cc1c[nH]c3ccccc13)C(=O)N[C@@H](CCCNC(=N)N)C(=O)N2 (cyclo(CHFRWRC[Nle]GHFRWDR); disulfide 1-7)
87,162 nM,7,32,5.13 nM,759 nM,60,112 nM,309 nM,9770 nM,–,CC[C@H](C)[C@@H]1NC(=O)[C@@H]2CCCN2C(=O)[C@H](Cc2c[nH]c3ccccc23)NC(=O)[C@H](CCCNC(=N)N)N(C)C(=O)[C@H](Cc2ccccc2)NC(=O)[C@H](Cc2cnc[nH]2)NC(=O)[C@H]([C@@H](C)O)NC(=O)[C@@H](NC(C)=O)CSCc2ccc(cc2)CSC[C@@H](C(N)=O)NC1=O (Ac-CTHF[NMeR]WPIC-NH2; linker 1-9 via pXylylene)
20,39.8 nM,2,5,8.71 nM,347 nM,7,195 nM,60.3 nM,3980 nM,–,CC[C@H](C)[C@@H]1NC(=O)[C@@H]2CCCN2C(=O)[C@H](Cc2c[nH]c3ccccc23)NC(=O)[C@H](CCCNC(=N)N)N(C)C(=O)[C@H](Cc2ccccc2)NC(=O)[C@H](Cc2cnc[nH]2)NC(=O)[C@H]([C@@H](C)O)NC(=O)[C@@H](NC(C)=O)CSSC[C@@H](C(N)=O)NC1=O (Ac-CTHF[NMeR]WPIC-NH2; disulfide 1-9)

# Second part, the molecule before the results:
SMILES,Ratio Ki (Homo sapiens [1]),EC50 (Melanocortin receptor 3 [2]),Ratio Ki (Homo sapiens [3]),Ratio EC50 (Homo sapiens [4]),EC50 ([5]; read-out: pEC50 (converted)),Ki (Melanocortin receptor 4 [6]),Ratio EC50 (Homo sapiens [7]),Ki [8],EC50 (Melanocortin receptor 4 [9]),Ki (Melanocortin receptor 3 [10]),EC50 ([5]; read-out: EC50)
CCCC[C@@H]1NC(=O)[C@@H]2CSc3nnc(c4c3CCC3C(CC4)C3COC(=O)NCCOCCOCCN)SC[C@H](NC(=O)[C@H](CCCNC(=N)N)NC(=O)[C@H](CC(=O)O)NC(=O)[C@H](Cc3c[nH]c4ccccc34)NC(=O)[C@H](CCCNC(=N)N)NC(=O)[C@H](Cc3ccccc3)NC(=O)[C@H](Cc3cnc[nH]3)NC(=O)CNC1=O)C(=O)N[C@@H](Cc1cnc[nH]1)C(=O)N[C@@H](Cc1ccccc1)C(=O)N[C@@H](CCCNC(=N)N)C(=O)N[C@@H](Cc1c[nH]c3ccccc13)C(=O)N[C@@H](CCCNC(=N)N)C(=O)N2 (some centres not stated) (cyclo(CHFRWRC[Nle]GHFRWDR); linker 1-7 via X2),89,0.107 nM,347,12,< 0.00912 nM,20 nM,123,0.0575 nM,1.12 nM,5.13 nM,< 0.009 nM
CCCC[C@@H]1NC(=O)[C@@H]2CSc3nnc(c4c3CCC3C(CC4)C3COC(=O)NCCOCCOCCOCCOCCC(=O)O)SC[C@H](NC(=O)[C@H](CCCNC(=N)N)NC(=O)[C@H](CC(=O)O)NC(=O)[C@H](Cc3c[nH]c4ccccc34)NC(=O)[C@H](CCCNC(=N)N)NC(=O)[C@H](Cc3ccccc3)NC(=O)[C@H](Cc3cnc[nH]3)NC(=O)CNC1=O)C(=O)N[C@@H](Cc1cnc[nH]1)C(=O)N[C@@H](Cc1ccccc1)C(=O)N[C@@H](CCCNC(=N)N)C(=O)N[C@@H](Cc1c[nH]c3ccccc13)C(=O)N[C@@H](CCCNC(=N)N)C(=O)N2 (some centres not stated) (cyclo(CHFRWRC[Nle]GHFRWDR); linker 1-7 via X5),56,0.603 nM,263,7,0.0891 nM,166 nM,117,0.631 nM,10.5 nM,35.5 nM,–
CCCC[C@@H]1NC(=O)[C@@H]2CSC/C(=N/OCC(=O)NCCOCCOCCOCCN=[N+]=[N-])CSC[C@H](NC(=O)[C@H](CCCNC(=N)N)NC(=O)[C@H](CC(=O)O)NC(=O)[C@H](Cc3c[nH]c4ccccc34)NC(=O)[C@H](CCCNC(=N)N)NC(=O)[C@H](Cc3ccccc3)NC(=O)[C@H](Cc3cnc[nH]3)NC(=O)CNC1=O)C(=O)N[C@@H](Cc1cnc[nH]1)C(=O)N[C@@H](Cc1ccccc1)C(=O)N[C@@H](CCCNC(=N)N)C(=O)N[C@@H](Cc1c[nH]c3ccccc13)C(=O)N[C@@H](CCCNC(=N)N)C(=O)N2,14,0.105 nM,79,2,0.0468 nM,30.9 nM,65,0.389 nM,3.02 nM,5.5 nM,–
"CCCC[C@@H]1NC(=O)[C@@H]2CSC3=C(SC[C@H](NC(=O)[C@H](CCCNC(=N)N)NC(=O)[C@H](CC(=O)O)NC(=O)[C@H](Cc4c[nH]c5ccccc45)NC(=O)[C@H](CCCNC(=N)N)NC(=O)[C@H](Cc4ccccc4)NC(=O)[C@H](Cc4cnc[nH]4)NC(=O)CNC1=O)C(=O)N[C@@H](Cc1cnc[nH]1)C(=O)N[C@@H](Cc1ccccc1)C(=O)N[C@@H](CCCNC(=N)N)C(=O)N[C@@H](Cc1c[nH]c4ccccc14)C(=O)N[C@@H](CCCNC(=N)N)C(=O)N2)C(=O)NC3=O (cyclo(CHFRWRC[Nle]GHFRWDR); linker 1-7 via Maleimide(3,4-diyl))",8,0.398 nM,22,1,0.288 nM,81.3 nM,17,3.63 nM,5.01 nM,28.2 nM,–
CCCC[C@@H]1NC(=O)[C@@H]2CSc3nnc(c4c3CCC3C(CC4)C3COC(=O)NCCOCCOCCNC(=O)c3ccc4c(c3)C(=O)OC43c4ccc(O)cc4Oc4cc(O)ccc43)SC[C@H](NC(=O)[C@H](CCCNC(=N)N)NC(=O)[C@H](CC(=O)O)NC(=O)[C@H](Cc3c[nH]c4ccccc34)NC(=O)[C@H](CCCNC(=N)N)NC(=O)[C@H](Cc3ccccc3)NC(=O)[C@H](Cc3cnc[nH]3)NC(=O)CNC1=O)C(=O)N[C@@H](Cc1cnc[nH]1)C(=O)N[C@@H](Cc1ccccc1)C(=O)N[C@@H](CCCNC(=N)N)C(=O)N[C@@H](Cc1c[nH]c3ccccc13)C(=O)N[C@@H](CCCNC(=N)N)C(=O)N2 (some centres not stated) (cyclo(CHFRWRC[Nle]GHFRWDR); linker 1-7 via X6),11,0.955 nM,93,4,0.24 nM,263 nM,69,2.82 nM,16.6 nM,30.9 nM,< 0.3 nM
"CCCC[C@@H]1NC(=O)[C@@H]2CSc3c(F)c(F)c(c(F)c3F)SC[C@H](NC(=O)[C@H](CCCNC(=N)N)NC(=O)[C@H](CC(=O)O)NC(=O)[C@H](Cc3c[nH]c4ccccc34)NC(=O)[C@H](CCCNC(=N)N)NC(=O)[C@H](Cc3ccccc3)NC(=O)[C@H](Cc3cnc[nH]3)NC(=O)CNC1=O)C(=O)N[C@@H](Cc1cnc[nH]1)C(=O)N[C@@H](Cc1ccccc1)C(=O)N[C@@H](CCCNC(=N)N)C(=O)N[C@@H](Cc1c[nH]c3ccccc13)C(=O)N[C@@H](CCCNC(=N)N)C(=O)N2 (cyclo(CHFRWRC[Nle]GHFRWDR); linker 1-7 via C6F4(1,4-diyl))",15,0.275 nM,58,2,0.123 nM,45.7 nM,29,0.794 nM,3.55 nM,11.7 nM,–
